# Data as given in patent publication US20090175911A1, “Bacterial Production of Carotenoids” (ROYAL HOLLOWAY AND BEDFORD NEW COLLEGE, priority 2005, published 2009).
# Read-outs that look alike come from different tables or passages of the source.
# Key:
# [1] = system: PY79; assay: MIC determination; type: cell-based; settings: Bacillus subtilis
# [2] = system: HU36; assay: MIC determination; type: cell-based; settings: Bacillus
# [3] = system: HU36; assay: Disc diffusion antibiogram; type: cell-based, Bacillus
# [4] = system: Natto; assay: Disc diffusion antibiogram; settings: 6 mm discs, amount per disc in brackets after each antibiotic, 18 h at 37° C., three experiments
# [5] = system: PY79; assay: Disc diffusion antibiogram; settings: 6 mm discs, amount per disc in brackets after each antibiotic, 18 h at 37° C., three experiments
# [6] = Gastric stability of carotenoids in simulated gastric fluid (SGF); type: in vitro ADME; settings: SGF (1 mg/ml pepsin, 0.9% NaCl, pH 2), 37° C., by 20 minutes, versus 0 minutes
# [7] = strains with MICs equal or higher are considered resistant, cited from earlier work
Molecule,MIC [1] [µg/mL],MIC [2] [µg/mL],Zone of inhibition (mm) [4] [mm],Zone of inhibition (mm) [5] [mm],also measured
CC(C)(O/N=C(\C(=O)N[C@@H]1C(=O)N2C(C(=O)[O-])=C(C[n+]3ccccc3)CS[C@H]12)c1csc(N)n1)C(=O)O [Ceftazidime],0.025,0.05,,,
O=C(O)c1cn(C2CC2)c2cc(N3CCNCC3)c(F)cc2c1=O [Ciporfloxacin],,,33.3 ± 1.5,32.8 ± 1,Zone of inhibition (mm) [3]: 29.7 ± 0.6 mm
CCC[C@@H]1C[C@@H](C(=O)N[C@@H]([C@H]2O[C@H](SC)[C@H](O)[C@@H](O)[C@H]2O)[C@H](C)Cl)N(C)C1 [Clindamycin],0.05,8,,,
CCn1cc(C(=O)O)c(=O)c2ccc(C)nc21 [Naladixic acid],,,23 ± 1.7,20.7 ± 1.2,"Zone of inhibition (mm) ([3]; HU36, 6 mm discs, amount per disc in brackets after each antibiotic, 18 h at 37° C., three experiments): 22.8 ± 1.4 mm"
"CC1=C(/C=C/C(C)=C/C=C/C(C)=C/C=C/C=C(C)/C=C/C=C(C)/C=C/C2=C(C)CCCC2(C)C)C(C)(C)CCC1 [carotenoid standard, beta-carotene]",,,,,carotenoid remaining [6]: less than 1%
Gentamycin,,,,,"Breakpoints EFSA ([7]; (EFSA, 2005)): 4 mg/L; Breakpoints SCAN ([7]; (SCAN, 2002)): 8 mg/L"
